From patent US20260327263A1, “Anti-Bacterial Peptides” (priority 2023, published 2026) come the findings set out here.

Entries after “also recorded” stand apart in the source; their conditions may differ. Where no end group is shown, it is not given here.

Data set [1] has as its system Pseudomonas aeruginosa (PA). Put plainly: Time-kill assay, Pseudomonas aeruginosa. It counts as cell-based. Conditions: for time to kill PA (in words): 1X MBC; for Time kill PA, >99% killing: at 1X MBC, * indicates killing within seconds. As to the method:
(§1) The bactericidal abilities of the variant peptides are not only effective, but also fast-acting. […] The killing kinetics are detailed in Table 11 below.
(§2) Pseudomonas aeruginosa (PA) and Staphylococcus aureus (SA) strains were grown as per CLSI guidelines. AMPs were added to the bacterial cultures at their 1X MBC concentrations. Upon treatment, the bacterial cultures were enumerated for viable counts immediately within 1 min, 5 min, 15 min, 30 min and 60 min post-treatments.

Data set [2] deals with Staphylococcus aureus (SA). Kind of data set: Time-kill assay, Staphylococcus aureus. It counts as cell-based. Conditions: for time to kill SA (in words): 1X MBC; for Time kill SA, >99% killing: at 1X MBC, * indicates killing within seconds. As to the method:
as §1, §2

In data set [3] the test system is Pseudomonas aeruginosa (PA). Kind of data set: Live-dead staining of bacteria (membrane damage). The format is cell-based, Pseudomonas aeruginosa (ATCC 14213). As to the method: FIG. 2 verifies the effects of exemplary variant peptides in disrupting bacterial membranes. To test whether exemplary peptide E1AM2 causes membrane damage in bacteria, live and dead staining of exemplary bacteria strain Pseudomonas aeruginosa (ATCC 14213, PA) are performed in the presence of different concentrations of E1AM2 peptide. […] Scale bar-3 μm. The lesser number of PA cells observed upon E1AM2 treatment at these concentrations is due to leaking of the bacteria caused by membrane disruption. Thus, peptide variants with the cationic arm show bacterial membrane disrupting ability. FIG. 2B provides a quantification of Syto-9 and PI-positive Pseudomonas aeruginosa (PA) cells 24 hours post E1AM2 treatment.
Scale bar=3 μm. […] The percentage of PA cells with (PI-positive, red) and without (Syto-9 stained, green) membrane damage following E1AM2 V8LQ19L peptide treatment are shown.
PA was treated with E1AM2 for 24 hours followed by live-dead saining in accordance to the manufacturers' instruction (LIVE/DEAD™ BacLight™ Bacterial Viability Kit, for microscopy & quantitative assays).

Data set [4] has as its system Pseudomonas aeruginosa (PA). Put plainly: Antimicrobial resistance evolution assay, PA. Conditions: for development of antimicrobial resistance, PA: serial passaging, 28 days, resistance = >4-fold MIC change. The format is cell-based. From the text: The development of antimicrobial resistance is defined by greater than a 4-fold change to their initial minimum inhibitory concentration (MIC) at day 1. Exemplary bacteria strains Pseudomonas aeruginosa (PA) and Staphylococcus aureus (SA) are subjected to continuous daily serial passaging over several days, with treatment of exemplary variant peptides E1AM2 (SEQ ID NO: 2) and Q19L (SEQ ID NO: […]) at subinhibitory concentrations. […] The treatments were discontinued when the MIC increased by more than four-fold from the initial MIC or when MIC reached >100 μM.
Briefly, sequential passaging of PA, and SA cells was done with sub-inhibitory concentrations of antibiotics or E1AM2 up to 4 weeks. The cells grown in those concentrations of antibiotics or peptides were diluted to A600 nm (OD600) of ~0.2 and serially passaged daily with the same concentrations at 37° C. with agitation at 24 h intervals.

For the next data set, the system named is human keratinocytes. Put plainly: 2D scratch assay, keratinocyte migration. The format is cell-based. Here is the method:
Wound healing is directly associated with the migration speed of keratinocytes. The migration speed of human keratinocytes in presence of E1AM2, V8L (SEQ ID NO: 19), and Q19L variants is tested in comparison with pexiganan (SEQ ID NO: 54). Migration speed of human keratinocytes assessed in a 2D scratch assay at D 0 and D 2 timepoints. Decrease in wound area over time was measured by applying an ImageJ plugin ‘Wound Healing Size Tool’ on bright-field images. The change in wound area over the course of 48 hours was used as a measure of the migration speed of keratinocytes. Each value is the mean±SD (n=3). The p-value was calculated using ANOVA for multiple comparisons (Dunnett's multiple comparisons test). **** p<0.0001. *** p<0.001. ** p <0.01. * p<0.05. […] Both peptides healed wound faster within their respective MIC and MBC concentrations. […] SEQ ID NO: 27=Q19L; SEQ ID NO: 2=E1AM2; SEQ ID NO: 19=V8L.
Wound closure was compared with the untreated samples (circle, red highlight). For improved clarity, error bars have been omitted from this representation. […] Each value is the mean±SD (n=3). Statistical significance was assessed using ANOVA for multiple comparisons (Dunnett's multiple comparisons test). **** p<0.0001, *** p<0.001, ** p<0.01, *p<0.05, ns denotes nonsignificance, p >0.05.
Wound areas of the human keratinocyte culture were assessed in presence of peptides in a 2D scratch assay at the 0 hour, and 48-hour time points by applying an ImageJ plugin, ‘Wound Healing Size Tool’ on brightfield images. Quantification of wound width was calculated by obtaining the averaged Euclidean distance between each paired pixel at the lateral wound edges. The change in wound area over the course of 48 hours was used as a measure of the migration speed of keratinocytes.
Using the inverted BioTek Lionheart LX Automated Microscope, brightfield images were obtained at 4× magnification to observe the wound area at timepoints 0 (before treatment) and 48 hours-post treatment. Microscopy settings were maintained as focus offset (781.3 μm), illumination (2), integration Time (21) with no gain. To cover the entire well, montage images of four rows by three columns were stitched together by enabling the “image stitching” function and images were saved in tiff-format.

In data set [5] the test system is human red blood cells (hRBCs). Put plainly: Hemolysis assay. The format is cell-based. Conditions: for minimum concentration corresponding to 10% hemolysis (HC) / hemolysis (in words): hRBCs; for minimum concentration corresponding to 10% hemolysis (HC): 37° C.; for hemolysis (in words): FIG. 8 up to 100 μM. As to the method: The hemolytic score of the peptide variants and pexiganan (SEQ ID NO: 54) are compared to a strong hemolytic peptide, melittin 12 as a control. […] The minimum peptide concentration corresponding to 10% hemolysis (minimal hemolysis concentration, HC) of E1AM2=50 μM, V8LQ19L=12.5 μM, V8LQ19L C-2=3.125 μM, and pexiganan=12.5 μM respectively. Readings of the melittin at 3.125 μM were normalised to 100%.
Examination of hemolytic activity of ultra-short peptides was performed by isolating the red blood cells (RBCs) from human blood samples by centrifugation (1000 g, 4° C., 10 min) and resuspension in 27 mL PBS. This washing step was repeated four times before the RBCs were diluted to a 10% (v/v) suspension. […] Hemolytic properties of E1AM2 and pexiganan were evaluated with melittin used as a positive control, and PBS as a negative control. The plates were incubated at 37° C., for 30 min and then centrifuged (1258 g, 4° C., 6 min). 75 μL of supernatant were transferred into a flat-bottom clear 96-well plate and the OD576 nm was read. Readings of the melittin sample at 3.125 μM were normalized to 100%.

As for KKLLKKWLKLSKKALKLALSL-NH2 [V8LQ19L], in data set [1], the “time to kill PA (in words)” value is given as “within seconds” and the “Time kill PA, >99% killing” value was 1* min. Moreover, in data set [2], the “time to kill SA (in words)” value is reported as “within seconds” and the “Time kill SA, >99% killing” value is given as 1* min. Also, the “mechanism of bacterial killing (live/dead)” value in data set [3] (FIG. 12) is listed as “primarily through membrane damage”. Further, in data set [4] (Table 15: in PA and SA, bacteria not named), the “AMR prevention / resistance induction” value is “Prevent AMR”. Moreover, the “development of antimicrobial resistance, PA” value in data set [4] was “effective in preventing the acquisition of AMR”. In addition, in the data set with human keratinocytes (up to 16X MBC), the “wound closure, 2D scratch” value was “did not impair wound healing”. Also, in data set [5] (30 min), the “minimum concentration corresponding to 10% hemolysis (HC)” value stood at 12.5 µM. Besides, the “hemolysis (in words)” value in data set [5] was “do not cause hemolysis”.

In the case of “E1AM2: untagged (E1AM2), KKLLKKWVKLSKKALKLAQSL”, in data set [1], the “time to kill PA (in words)” value was “within minutes” and the “Time kill PA, >99% killing” value is 1 min. Also, in data set [2], the “time to kill SA (in words)” value is recorded as “within minutes” and the “Time kill SA, >99% killing” value is recorded as 1 min. The “incorporation of propidium iodide (PI), membrane damage” value in data set [3] (at 1× MIC (3.125 μM) and 1X MBC (6.25 μM), 24 h) stood at 100%. Further, the “development of antimicrobial resistance, PA” value in data set [4] is on record as “prevented resistance acquisition”. Further, the “migration speed of keratinocytes” value in the data set on human keratinocytes (48 h, E1AM2 3.125-12.5 μM, Q19L 3.125-6.25 μM) is “increase keratinocyte migration; also recorded: increased the migration speed of keratinocytes significantly”. The hemolysis in data set [5] (at respective MIC/MBC concentrations, melittin 3.125 μM = 100%, 30 min) is ~ 0%. Also, the “minimum concentration corresponding to 10% hemolysis (HC)” value in data set [5] (30 min) worked out at 50 µM. For the same substance, the “hemolysis (in words)” value in data set [5] was “do not cause hemolysis”.
